Earlier results on seven molecules are cited in patent US11913924B2, “Ion generation using modified wetted porous materials” (Purdue Research Foundation, priority 2011, dated 2024).

The conditions of data set [1]: in vivo.
Setting [2] is: therapeutic windows listed in Table 6.

Read-outs that look alike come from different tables or passages of the source.

As for `CN1CCCC1c1cccnc1` (stereo not shown) [nicotine], the half-life entry in data set [1] is “about 2 hours”.
`CN(C)CCCC1(c2ccc(F)cc2)OCc2cc(C#N)ccc21` (stereo not shown) [citalopram]: under setting [2], the Therapeutic range was 10 to 200 ng/mL.
Turning to `CCN(CC)CC(=O)Nc1c(C)cccc1C` [lidocaine], the Therapeutic range under setting [2] is on record as 1,000-6,000 ng mL^−1.
As to `CN(C)CCC=C1c2ccccc2CCc2ccccc21` [amitriptyline], the Therapeutic range under setting [2] is 50 to 200 ng/mL.
Turning to `O=P1(N(CCCl)CCCl)NCCCO1` (stereo not shown) [Cyclophosphamide, cyclophosphamide], for the setting “plasma concentrations, Regenthal et al., J. Clin. Monitor Comp. 1999”, the “Therapeutic range” value is 10000 to 25000 ng/mL.
As for `CN1C(=O)CC[C@H]1c1cccnc1` [cotinine], the half-life result in data set [1] is on record as “about 16 hours”.
For `CCN(CC)CCNC(=O)c1c(C)[nH]c(/C=C2\C(=O)Nc3ccc(F)cc32)c1C` [sunitinib], the Therapeutic range under setting [2] is 20 to 200 ng/mL.
